Test results as given in ChEMBL document CHEMBL1201862, “PubChem BioAssay data set” (2004).
Blank lines part the entries; values can stand above or below the compound they belong to. The source made the active and inactive calls.

How the values were obtained:
[1] = biological target: T1, Cytochrome P450 2C9 (Homo sapiens, UniProt P11712)
[2] = biological target: T2, Cytochrome P450 2D6 (Homo sapiens, UniProt P10635);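 further: CYP2D6 member of a cytochrome P450 panel assay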
[3] = biological target: CAAX prenyl protease 1 (Saccharomyces cerevisiae S288c, UniProt P47154); test: yeast CAAX protease Ste24 inhibition – biochemical, S. cerevisiae, plate reader, cherry-pick, dose response (AID 488815)
[4] = biological target: T1, Cytochrome P450 2C9; remark: listed apart in the source
[5] = system: BJ; test: cells; assay type: functional, cell-based; details: Homo sapiens
[6] = biological target: Phospholipase A2 (Homo sapiens, UniProt P04054); test: phospholipase A2 activity inhibition – biochemical, set 2, counter-screen for ATG4B inhibitor project, dose response (AID 588586); assay type: functional
[7] = system: BJ; test: BJ-TERT-LT-ST fibroblast viability loss – cell-based, RAS-independent, luminescence, dose response (AID 1935); assay type: functional; details: Homo sapiens;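 further: BJ fibroblasts immortalized with TERT plus LT and ST oncogenes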
[8] = biological target: T3, Cysteine protease ATG4B (Homo sapiens, UniProt Q9Y4P1); test: autophagin-1 cysteine protease inhibition – biochemical, fluorescence, set 2, dose response (AID 588584); assay type: functional
T3 sequence (Q9Y4P1 whole entry): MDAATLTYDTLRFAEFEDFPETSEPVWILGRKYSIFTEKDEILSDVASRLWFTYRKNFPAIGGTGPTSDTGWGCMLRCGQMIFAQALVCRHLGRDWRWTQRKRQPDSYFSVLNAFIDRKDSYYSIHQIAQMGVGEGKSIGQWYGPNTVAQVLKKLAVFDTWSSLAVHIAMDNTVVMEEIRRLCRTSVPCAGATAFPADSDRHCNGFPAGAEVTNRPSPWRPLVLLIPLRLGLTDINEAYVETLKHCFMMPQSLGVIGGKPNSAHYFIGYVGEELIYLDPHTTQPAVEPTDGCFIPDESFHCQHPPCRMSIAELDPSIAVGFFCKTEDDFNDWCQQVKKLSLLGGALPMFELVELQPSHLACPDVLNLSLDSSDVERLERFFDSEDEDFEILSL

[9] = DRD fibroblast viability loss – cell-based, non-viral oncogenic, luminescence, dose response (AID 1934); assay type: functional; details: Homo sapiens
[10] = system: BJ; test: BJ-TERT fibroblast viability loss – cell-based, RAS-independent, luminescence, dose response (AID 1933); assay type: functional; details: Homo sapiens
[11] = biological target: T4, Microphthalmia-associated transcription factor (Homo sapiens, UniProt O75030); test: reducers of TRPM1 reporter luminescence, concentration series – cell-based, SK-MEL-5, cherry-picked, set 3, MITF inhibitor project, dose response (AID 493073); assay type: functional;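 further: SK-MEL-5 melanoma cells with luciferase driven by the MITF target TRPM1 promoter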
T4 sequence (O75030 whole entry): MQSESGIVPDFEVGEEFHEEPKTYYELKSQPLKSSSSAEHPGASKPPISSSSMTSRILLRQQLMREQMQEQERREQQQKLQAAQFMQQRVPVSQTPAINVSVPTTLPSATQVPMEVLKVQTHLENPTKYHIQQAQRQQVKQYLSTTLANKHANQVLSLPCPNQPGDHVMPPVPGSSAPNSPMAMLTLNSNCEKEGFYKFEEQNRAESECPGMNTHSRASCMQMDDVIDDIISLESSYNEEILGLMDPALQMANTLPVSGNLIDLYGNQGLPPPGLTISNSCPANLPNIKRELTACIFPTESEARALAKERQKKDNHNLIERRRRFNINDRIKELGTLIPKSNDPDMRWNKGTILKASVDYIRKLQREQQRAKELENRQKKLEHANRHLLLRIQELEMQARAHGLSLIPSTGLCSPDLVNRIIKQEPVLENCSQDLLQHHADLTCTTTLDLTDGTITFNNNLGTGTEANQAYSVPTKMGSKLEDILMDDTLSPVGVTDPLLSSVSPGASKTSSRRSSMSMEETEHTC

[12] = cells; assay type: functional, cell-based
[13] = biological target: T5, Serine/threonine-protein phosphatase (Candida dubliniensis (strain CD36 / CBS 7987 / NCPF 3949 / NRRLY-17841) (Yeast), UniProt B9W6M3); test: blockers of CaCl2-induced CDRE-lacZ signaling – S. cerevisiae, luminescence, secondary, dose response (AID 2388); assay type: functional, cell-based;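 further: yeast reporter cells carrying a calcineurin-responsive lacZ construct stimulated with calcium chloride; luminescent beta-galactosidase reporter signal in whole cells rather than isolated phosphatase activity; potency for inhibition where a drop in reporter signal means calcineurin blockade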
T5 sequence (B9W6M3 whole entry): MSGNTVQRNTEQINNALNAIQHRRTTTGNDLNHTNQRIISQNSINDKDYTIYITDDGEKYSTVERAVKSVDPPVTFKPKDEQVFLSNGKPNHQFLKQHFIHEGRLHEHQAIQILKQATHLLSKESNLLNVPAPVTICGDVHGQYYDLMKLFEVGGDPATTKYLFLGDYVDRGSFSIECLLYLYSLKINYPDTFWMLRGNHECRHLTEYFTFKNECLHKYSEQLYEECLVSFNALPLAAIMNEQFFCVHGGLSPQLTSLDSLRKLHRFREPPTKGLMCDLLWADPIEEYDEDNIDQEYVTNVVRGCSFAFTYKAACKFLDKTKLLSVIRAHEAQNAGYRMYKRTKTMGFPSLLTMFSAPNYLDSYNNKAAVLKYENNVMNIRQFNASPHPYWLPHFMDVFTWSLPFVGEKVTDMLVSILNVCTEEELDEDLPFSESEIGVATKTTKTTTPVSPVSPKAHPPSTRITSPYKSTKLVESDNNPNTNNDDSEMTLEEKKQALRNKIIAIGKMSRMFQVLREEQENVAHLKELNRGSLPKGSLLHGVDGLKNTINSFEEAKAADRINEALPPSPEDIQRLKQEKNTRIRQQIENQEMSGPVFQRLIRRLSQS

[14] = fluconazole-exposed Candida albicans growth modulators – fluorescence, retest, confirmation (AID 2467); assay type: functional, cell-based
[15] = cells; assay type: functional, cell-based; remark: listed apart in the source
[16] = system: Streptococcus; test: GAS UMAA2166 growth inhibition – luminescence, BacTiterGlo, counter-screen for streptokinase expression inhibitor project, dose response (AID 1915); assay type: functional, organism-based;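 further: potency for reduction of bacterial viability or growth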
[17] = biological target: T2, Cytochrome P450 2D6; remark: listed apart in the source
[18] = NIH-3T3 fibroblast cytotoxicity, dose response, cytotoxicity control, cell-based, fluorescence, Alamar Blue, secondary assay (AID 2327); assay type: functional;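 further: NIH-3T3 mouse fibroblasts cultured with fluconazole at 8 µg/mL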
[19] = system: Streptococcus sp. 'group A'; test: Streptococcus pyogenes SK(-)GAS viability under kanamycin – luminescence, BacTiterGlo, confirmation, counter-screen for streptokinase expression inhibitor project, dose response (AID 1900); assay type: functional, organism-based
[20] = biological target: ATP-dependent molecular chaperone HSP82 (Candida albicans (strain WO-1) (Yeast), UniProt C4YTQ8); test: steroid-induced GRE reporter decrease in yeast – S. cerevisiae, luminescence, Hsp90 inhibitor project, dose response (AID 2400); assay type: functional, cell-based;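 further: beta-galactosidase luminescence from glucocorticoid response element reporter as proxy for Hsp90 function; inhibitor potency where signal loss means Hsp90 inhibition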
[21] = system: INS1; test: INS-1E survival protection against cytokine death – cell-based, luminescence, retest, dose response (AID 449756); assay type: functional; details: Rattus norvegicus;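 further: cell death triggered by IL-1 beta plus TNF-alpha plus IFN-gamma mixture; protective hits raise ATP signal compared with cytokine alone wells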
[22] = Luminescence Cell-Based Dose Retest to Confirm Inhibitors of Cancer Stem Cells. [Related pubchem assays (depositor defined):AID2717, AID2721]; assay type: functional; details: Homo sapiens

T1 sequence (P11712 whole entry): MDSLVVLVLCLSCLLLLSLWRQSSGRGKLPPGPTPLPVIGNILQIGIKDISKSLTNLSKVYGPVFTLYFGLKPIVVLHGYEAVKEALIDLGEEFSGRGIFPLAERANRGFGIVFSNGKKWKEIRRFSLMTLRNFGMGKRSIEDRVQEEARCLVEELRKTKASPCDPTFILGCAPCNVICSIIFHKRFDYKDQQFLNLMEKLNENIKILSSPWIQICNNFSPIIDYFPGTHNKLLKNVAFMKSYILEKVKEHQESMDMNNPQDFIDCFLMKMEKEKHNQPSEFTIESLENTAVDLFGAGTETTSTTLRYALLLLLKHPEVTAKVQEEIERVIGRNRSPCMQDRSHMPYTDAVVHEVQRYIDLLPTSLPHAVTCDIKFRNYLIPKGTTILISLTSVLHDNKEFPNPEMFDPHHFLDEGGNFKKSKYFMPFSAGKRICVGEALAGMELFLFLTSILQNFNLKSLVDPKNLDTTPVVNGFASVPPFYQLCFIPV
Sequence of Phospholipase A2 (P04054 whole entry): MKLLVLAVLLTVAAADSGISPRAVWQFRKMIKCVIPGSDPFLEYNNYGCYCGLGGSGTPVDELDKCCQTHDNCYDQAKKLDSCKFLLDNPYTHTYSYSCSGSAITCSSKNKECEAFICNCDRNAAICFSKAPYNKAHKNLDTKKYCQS
T2 sequence (P10635 whole entry): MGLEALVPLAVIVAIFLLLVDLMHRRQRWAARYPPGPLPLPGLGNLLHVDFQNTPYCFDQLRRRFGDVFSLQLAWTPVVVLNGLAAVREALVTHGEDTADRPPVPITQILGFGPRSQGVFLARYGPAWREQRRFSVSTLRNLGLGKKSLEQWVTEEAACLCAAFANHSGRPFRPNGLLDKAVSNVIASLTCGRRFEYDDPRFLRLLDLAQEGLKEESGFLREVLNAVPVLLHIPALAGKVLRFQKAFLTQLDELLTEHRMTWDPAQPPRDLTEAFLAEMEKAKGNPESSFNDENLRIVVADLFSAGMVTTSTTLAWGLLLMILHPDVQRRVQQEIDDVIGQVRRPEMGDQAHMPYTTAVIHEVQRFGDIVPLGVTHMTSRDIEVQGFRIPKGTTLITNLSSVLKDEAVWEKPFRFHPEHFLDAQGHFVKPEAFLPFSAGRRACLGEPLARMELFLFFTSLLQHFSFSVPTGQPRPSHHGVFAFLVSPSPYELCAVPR
Sequence of ATP-dependent molecular chaperone HSP82 (C4YTQ8 whole entry): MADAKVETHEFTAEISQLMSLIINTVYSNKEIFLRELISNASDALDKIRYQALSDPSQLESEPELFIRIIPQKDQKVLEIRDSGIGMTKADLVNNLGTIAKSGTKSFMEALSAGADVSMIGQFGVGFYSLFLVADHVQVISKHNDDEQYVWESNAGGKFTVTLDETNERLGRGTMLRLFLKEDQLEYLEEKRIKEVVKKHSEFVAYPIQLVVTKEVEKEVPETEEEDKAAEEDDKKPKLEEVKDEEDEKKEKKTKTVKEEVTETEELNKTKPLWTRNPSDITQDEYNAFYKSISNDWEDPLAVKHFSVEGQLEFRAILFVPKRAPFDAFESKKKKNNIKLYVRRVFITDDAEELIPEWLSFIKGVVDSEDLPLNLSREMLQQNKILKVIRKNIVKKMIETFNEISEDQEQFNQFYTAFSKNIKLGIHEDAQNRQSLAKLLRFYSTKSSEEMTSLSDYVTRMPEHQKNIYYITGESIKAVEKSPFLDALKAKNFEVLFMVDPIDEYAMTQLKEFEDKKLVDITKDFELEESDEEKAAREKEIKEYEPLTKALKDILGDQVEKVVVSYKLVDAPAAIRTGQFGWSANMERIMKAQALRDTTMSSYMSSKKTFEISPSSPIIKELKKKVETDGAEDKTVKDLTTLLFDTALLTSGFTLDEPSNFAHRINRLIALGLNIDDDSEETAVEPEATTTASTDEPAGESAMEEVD
Sequence of CAAX prenyl protease 1 (P47154 whole entry): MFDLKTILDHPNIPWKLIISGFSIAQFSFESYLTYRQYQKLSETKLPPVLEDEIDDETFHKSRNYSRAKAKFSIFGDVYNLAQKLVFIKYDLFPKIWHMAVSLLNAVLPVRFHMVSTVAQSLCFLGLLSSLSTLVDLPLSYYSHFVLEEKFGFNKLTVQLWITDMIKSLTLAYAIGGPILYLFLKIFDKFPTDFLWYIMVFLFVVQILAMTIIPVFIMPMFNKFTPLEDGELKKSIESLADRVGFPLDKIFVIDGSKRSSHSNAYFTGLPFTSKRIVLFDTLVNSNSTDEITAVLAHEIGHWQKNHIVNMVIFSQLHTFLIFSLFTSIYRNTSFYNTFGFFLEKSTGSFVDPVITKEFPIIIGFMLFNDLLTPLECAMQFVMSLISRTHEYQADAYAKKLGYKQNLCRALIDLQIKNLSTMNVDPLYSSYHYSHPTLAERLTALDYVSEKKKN

SMILES: CC(C)c1ccc(C(O)(C(=O)O)c2ccc(C(C)C)cc2)cc1
AC50 [1]: 3.98 µM (inconclusive)
AC50 [2]: inconclusive

AC50 [3]: 14.7 µM (active)
SMILES: Cc1cc(C)cc(N2CC(=O)C(c3nc(O)c4ccccc4n3)=C2N)c1

AC50 [4]: inconclusive
SMILES: COc1ccccc1C(=O)Nc1cc2c(ccc3ccccc32)oc1=O

SMILES: CC1=Nc2cc(C(=O)NCc3ccco3)ccc2Sc2ccc(C)cc21
EC50 [5]: 2.76 µM (active)
IC50 [6]: 74.1 µM (inactive)
EC50 [7]: 1.95 µM (active)
IC50 [8]: 77.5 µM (inactive)
EC50 [9]: 2.73 µM (inconclusive)
EC50 [10]: 2.33 µM (inconclusive)

SMILES: Cc1c(Cl)c([N+](=O)[O-])nn1Cc1ccc(C(=O)N/N=C\c2cc(Cl)ccc2O)o1
AC50 [11]: 3.47 µM (active)
IC50 [6]: 5.5 µM (active)
EC50 [12]: 89 µM (active)
EC50 [13]: > 180 µM (inactive)
EC50 [14]: 0.754 µM (active)
EC50 [15]: 9.68 µM (active)
EC50 [16]: 2.38 µM (active)
AC50 [17]: 11.2 µM (inconclusive)
EC50 [18]: > 160 µM (inactive)
EC50 [19]: 2.03 µM (active)
IC50 [8]: 21 µM (inactive)
EC50 [20]: 29.5 µM (active)
AC50 [21]: 1.67 µM (active)
AC50 [22]: 3.28 µM (active)
